Data set [1] is described as follows: Cytotoxicity against human MCF-10A cells. The data set is classed as cell-based. The note with it: read-out: LD50 (the source's name).
In a further data set the test system is HCT-116. In words: Cytotoxicity against human HCT-116 cells. Format: functional. Particulars: read-out: LD50 (the source's name).
Another data set deals with MDA-MB-468. The experiment in a line: Cytotoxicity against human MDA-MB-468 cells. Format: functional. Particulars: read-out: LD50 (the source's name).
Data set [2] has as its system MDA-MB-231. In words: Cytotoxicity against human MDA-MB-231 cells in dark. Format: functional, cell-based.
Data set [3] has as its system MDA-MB-231. The experiment in a line: Cytotoxicity against human MDA-MB-231 cells. The data set is classed as functional, cell-based.

Where only a bound is given, the exact number is not on record here.

With `CC(C)C[C@H](NC(=O)[C@@H](NC(=O)c1ccc(/N=N/c2ccc(-c3ccccc3)cc2)cc1)[C@@H](C)O)B1OC2C[C@@H]3C[C@H](C2O1)C3(C)C` (stereo partly drawn), the CC50 is more than 5000 nM in data set [1], 246 nM in the data set on HCT-116 and 683 nM with MDA-MB-468.

On to `CC(C)C[C@H](NC(=O)[C@@H](NC(=O)c1ccc(/N=N\c2ccc(-c3ccccc3)cc2)cc1)[C@@H](C)O)B1OC2C[C@@H]3C[C@H](C2O1)C3(C)C` (stereo partly drawn), for which the CC50 turned out to be 144 nM in data set [1], 212 nM in the data set on HCT-116 and 1030 nM with MDA-MB-468.

What is called EC50 is the concentration giving half of the maximal effect. The compound `COc1ccc(/N=N/c2cc(OC)c(OC)c(OC)c2)cc1O` displayed an EC50 in the data set on MDA-MB-231 [2] of 38000 nM.

Turning to `COc1ccc(/N=N\c2cc(OC)c(OC)c(OC)c2)cc1O`, the EC50 with MDA-MB-231 [3] came out at 500 nM.

Source of the values: ChEMBL document CHEMBL4699423, “Photocontrolled activation of small molecule cancer therapeutics” (RSC Med Chem, 2020).
